These results are taken from US10865191B2, “Heterocyclic compounds useful as modulators of TNF alpha” (BRISTOL-MYERS SQUIBB COMPANY, priority 2015, dated 2020).

In this experiment the target is TNFα (Homo sapiens, UniProt P01375). Description: TNF induced HEK-Blue assay (NF-kB-driven secreted alkaline phosphatase reporter). The experiment is classed as cell-based. As to conditions: TNFα 0.5 ng/mL, HEK-Blue-CD40L cells, 18 h. The gist of the method:
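HEK-Blue-CD40L cells (NF-kB-driven SEAP reporter), 20,000/well, added after 30 min pre-incubation of compound (0.004–25 μM final) with TNFα 0.5 ng/mL final at 37 °C; 18 h incubation. SEAP read with QUANTI-Blue at 620 nm; IC50 from 4-parameter logistic fit, normalized to unstimulated and stimulated DMSO controls.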

Where [1] appears, read: read-out: TNF induced HEK-Blue assay IC50 value.

Read-outs that look alike come from different tables or passages of the source.

TNFα, sequence (P01375 77-233 limits assumed): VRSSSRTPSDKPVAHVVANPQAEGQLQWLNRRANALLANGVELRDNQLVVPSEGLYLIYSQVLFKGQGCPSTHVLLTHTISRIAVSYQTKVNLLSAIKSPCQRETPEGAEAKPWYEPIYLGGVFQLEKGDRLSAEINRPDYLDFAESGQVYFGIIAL

`Cc1nc2cc(F)c(-c3cnc(C(C)(C)O)nc3)nc2c(N[C@H](C)c2cc(CO)ccc2F)c1Cl` [Example 577, (R)-2-(5-(7-chloro-3-fluoro-8-((1-(2-fluoro-5-(hydroxymethyl)phenyl)ethyl)amino)-6-methyl-1,5-naphthyridin-2-yl)pyrimidin-2-yl)propan-2-ol]: the IC50 under setting [1] is less than 1 µM. The same measure, in the same setting: with `Cc1nc2ccc(-c3cnc(C(C)(C)O)nc3)cc2c(N[C@H](C)c2cc(C(C)(O)CO)ccc2F)c1Cl` (mixture of isomers) [Example 403, 2-(3-((R)-1-((3-chloro-6-(2-(2-hydroxypropan-2-yl)pyrimidin-5-yl)-2-methylquinolin-4-yl)amino)ethyl)-4-fluorophenyl)propane-1,2-diol] the figure was less than 1 µM; with `Fc1ccc(-c2cncnc2)cc1[C@H](Nc1c(Cl)cnc2ccccc12)C(F)F` [Example 559, (S)-3-chloro-N-(2,2-difluoro-1-(2-fluoro-5-(pyrimidin-5-yl)phenyl)ethyl)quinolin-4-amine], less than 1 µM. Same read-out and setting: under `C=Cc1ccc(F)c([C@H](Nc2c(Cl)c(C)nc3cc(F)c(-c4cnc(C(C)(C)O)nc4)nc23)C(F)F)c1` [Example 494, (S)-2-(5-(7-chloro-8-((2,2-difluoro-1-(2-fluoro-5-vinylphenyl)ethyl)amino)-3-fluoro-6-methyl-1,5-naphthyridin-2-yl)pyrimidin-2-yl) propan-2-ol] stands less than 1 µM. `C[C@@H](Nc1c(Cl)cnc2ccccc12)c1cc(-c2cnc(N)nc2)ccc1F` [Example 481, (R)—N-(1-(5-(2-aminopyrimidin-5-yl)-2-fluorophenyl)ethyl)-3-chloroquinolin-4-amine]: the IC50 under setting [1] was less than 1 µM. Same read-out and setting: under `C[C@@H](Nc1c(Cl)cnc2ccc(-c3cnc(C(C)(C)O)nc3)cc12)c1cc(N2CCCC2=O)ccc1F` [Example 362, (R)-1-(3-(1-((3-chloro-6-(2-(2-hydroxypropan-2-yl)pyrimidin-5-yl)quinolin-4-yl)amino)ethyl)-4-fluorophenyl)pyrrolidin-2-one] stands less than 1 µM; under `CC(Nc1c(Cl)cnc2ccc(-c3cnc(C(C)(C)O)nc3)cc12)c1ccccc1Cl` (racemic) [Example 153, 2-(5-(3-chloro-4-((1-(2-chlorophenyl)ethyl)amino)quinolin-6-yl)pyrimidin-2-yl)propan-2-ol], less than 1 µM; under `CC(Nc1c(Cl)cnc2ccc(-c3cnc(C(C)(C)O)nc3)cc12)[C@H]1CCCNC1` (single isomer, unassigned) [Example 96], 10 to 25 µM. Take `C[C@@H](Nc1c(Cl)cnc2ccc(-c3cnc(C(C)(C)O)nc3)cc12)c1cc(CN)ccc1F` [Example 429, (R)-2-(5-(4-((1-(5-(aminomethyl)-2-fluorophenyl)ethyl)amino)-3-chloroquinolin-6-yl)pyrimidin-2-yl)propan-2-ol]: the IC50 under setting [1] was less than 1 µM. On the same count and under the same terms, under `CC(Nc1c(Cl)cnc2cc(F)c(-c3cnc(N4CCN(C(=O)[C@@H](N)CO)CC4)nc3)cc12)c1ccccc1F` (single isomer, unassigned) [Example 604] stands less than 1 µM. `CC(=O)N1CCC[C@@H](C(C)Nc2c(Cl)cnc3ccc(-c4cnc(C(C)(C)O)nc4)cc23)C1` (single isomer, unassigned) [Example 108]: for the setting “TNF induced HEK-Blue assay IC50 value”, the IC50 was in the range of 1 to 10 µM. On to `CC(Nc1c(Cl)cnc2cc(F)c(-c3cnc(N4CCC(C(C)(C)O)CC4)nc3)cc12)c1ccccc1F` (single isomer, unassigned) [Example 245, 2-(1-(5-(3-chloro-7-fluoro-4-((1-(2-fluorophenyl)ethyl)amino)quinolin-6-yl)pyrimidin-2-yl)piperidin-4-yl)propan-2-ol], for which the IC50 under setting [1] was less than 1 µM. Turning to `CC(Nc1c(Cl)cnc2ccc(-c3ccc(C(C)(C)O)cc3)cc12)c1nccn1C` (racemic) [Example 201, 2-(4-(3-chloro-4-((1-(1-methyl-1H-imidazol-2-yl)ethyl)amino)quinolin-6-yl)phenyl)propan-2-ol], the IC50 under setting [1] lay in the range of 10 to 25 µM. The same measure, in the same setting: under `C[C@@H](Nc1c(Cl)cnc2ccc(-c3cnc(C(C)(C)O)nc3)cc12)c1cccc(N2CCOCC2)c1` [Example 136, (R)-2-(5-(3-chloro-4-((1-(3-morpholinophenyl)ethyl)amino)quinolin-6-yl)pyrimidin-2-yl)propan-2-ol] stands less than 1 µM. Consider `CC(Nc1c(Cl)cnc2cc(F)c(-c3cnc(N4CCN(C(=O)[C@@H](N)CC(=O)O)CC4)nc3)cc12)c1ccccc1F` (single isomer, unassigned) [Example 605, (3 S)-3-amino-4-(4-(5-(3-chloro-7-fluoro-4-((1-(2-fluorophenyl)ethyl)amino)quinolin-6-yl)pyrimidin-2-yl)piperazin-1-yl)-4-oxobutanoic acid], for which the IC50 under setting [1] was less than 1 µM.

Regarding `Cc1nc2c(F)cc(-c3cnc(C(C)(C)O)nc3)cc2c(N[C@@H](c2ccccc2F)C(F)F)c1Cl` [Example 299, (S)-2-(5-(3-chloro-4-((2,2-difluoro-1-(2-fluorophenyl)ethyl)amino)-8-fluoro-2-methylquinolin-6-yl)pyrimidin-2-yl)propan-2-ol], the IC50 under setting [1] is less than 1 µM. As for `CC(C)(O)c1ncc(-c2ccc3ncc(Cl)c(NC(c4ccccc4)C(F)F)c3c2)cn1` (racemic) [Example 57, 2-(5-(3-chloro-4-((2,2-difluoro-1-phenylethyl)amino)quinolin-6-yl)pyrimidin-2-yl)propan-2-ol], the IC50 under setting [1] is less than 1 µM.

On to `C[C@@H](Nc1c(Cl)cnc2ccc(-c3cnc(C(C)(C)O)nc3)cc12)c1cc(S(C)(=O)=O)ccc1F` [Example 425, (R)-2-(5-(3-chloro-4-((1-(2-fluoro-5-(methylsulfonyl)phenyl)ethyl)amino)quinolin-6-yl)pyrimidin-2-yl)propan-2-ol], for which the IC50 under setting [1] is less than 1 µM. `C[C@@H](Nc1c(Cl)cnc2ccccc12)c1cc(-c2cnc3[nH]ccc3c2)ccc1F` [Example 537, (R)-3-chloro-N-(1-(2-fluoro-5-(1H-pyrrolo[2,3-b]pyridin-5-yl)phenyl)ethyl)quinolin-4-amine]: the IC50 under setting [1] was less than 1 µM.

As to `COc1cc(-c2ccc(F)c([C@@H](C)Nc3c(Cl)cnc4ccccc34)c2)c(F)cn1` [Example 527, (R)-3-chloro-N-(1-(2-fluoro-5-(5-fluoro-2-methoxypyridin-4-yl)phenyl)ethyl)quinolin-4-amine], the IC50 under setting [1] was in the range of 1 to 10 µM. Take `Cc1nc2cc(F)c(-c3cnc(C(C)(C)O)nc3)cc2c(N[C@H](C)c2cc(CCC(=O)O)ccc2F)c1Cl` [Example 446, (R)-3-(3-(1-((3-chloro-7-fluoro-6-(2-(2-hydroxypropan-2-yl)pyrimidin-5-yl)-2-methylquinolin-4-yl)amino)ethyl)-4-fluorophenyl)propanoic acid]: the IC50 under setting [1] fell in the range of 1 to 10 µM. Same read-out and setting: with `Cc1nc2ccc(-c3cnc(C(C)(C)O)nc3)cc2c(NC(C)c2ccccc2F)c1F` (racemic) [Example 159, 2-(5-(3-fluoro-4-((1-(2-fluorophenyl)ethyl)amino)-2-methylquinolin-6-yl)pyrimidin-2-yl)propan-2-ol] the figure was 10 to 25 µM.

As to `COc1ccc(F)c([C@@H](C)Nc2ccnc3ccc(Cl)cc23)c1` [Example 456, (R)-6-chloro-N-(1-(2-fluoro-5-methoxyphenyl)ethyl)quinolin-4-amine], under setting [1], the IC50 was in the range of 10 to 25 µM. Turning to `C[C@@H](Nc1c(Cl)cnc2ccc(-c3cnc(N4CCOCC4)nc3)cc12)c1ccccc1F` [Example 219, (R)-3-chloro-N-(1-(2-fluorophenyl)ethyl)-6-(2-morpholinopyrimidin-5-yl)quinolin-4-amine], the IC50 under setting [1] was less than 1 µM. On the same count and under the same terms, with `CN(Cc1c(Cl)cnc2ccc(-c3cnc(C(C)(C)O)nc3)cc12)c1ccccc1F` [Example 67, 2-(5-(3-chloro-4-(((2-fluorophenyl)(methyl)amino)methyl)quinolin-6-yl)pyrimidin-2-yl)propan-2-ol] the figure was 1 to 10 µM; with `C[C@@H](Nc1c(Cl)cnc2ccc(-c3cnc(C(C)(C)O)nc3)cc12)c1cc(C#Cc2ccccc2)ccc1F` [Example 411, (R)-2-(5-(3-chloro-4-((1-(2-fluoro-5-(phenylethynyl)phenyl)ethyl)amino)quinolin-6-yl)pyrimidin-2-yl)propan-2-ol], 1 to 10 µM; with `COc1ncc(-c2ccc(F)c([C@@H](C)Nc3c(Cl)cnc4ccccc34)c2)cc1C#N` [Example 520, (R)-5-(3-(1-((3-chloroquinolin-4-yl)amino)ethyl)-4-fluorophenyl)-2-methoxynicotinonitrile], less than 1 µM. On the same count and under the same terms, with `CC(Nc1c(Cl)cnc2ccc(-c3cnc(C(C)(C)O)nc3)cc12)c1ccncc1F` (racemic) [Example 162, 2-(5-(3-chloro-4-((1-(3-fluoropyridin-4-yl)ethyl)amino)quinolin-6-yl)pyrimidin-2-yl)propan-2-ol] the figure was less than 1 µM. On the same count and under the same terms, with `CC(C)CC(C)Nc1c(Cl)cnc2ccc(-c3cnc(C(C)(C)O)nc3)cc12` (racemic) [Example 135, 2-(5-(3-chloro-4-((4-methylpentan-2-yl)amino)quinolin-6-yl)pyrimidin-2-yl)propan-2-ol] the figure was less than 1 µM; with `Cc1ccc(C)c(NCc2nc3ccc(-c4cnn(C)c4)cc3c(Nc3cc(C)ccc3C)c2Cl)c1` [Example 2, 3-chloro-N-(2,5-dimethylphenyl)-2-(((2,5-dimethylphenyl)amino)methyl)-6-(1-methyl-1H-pyrazol-4-yl)quinolin-4-amine], 10 to 25 µM.

With `C[C@@H](Nc1c(Cl)cnc2ccccc12)c1cc(-c2cnn(CC(C)(C)O)c2)ccc1F` [Example 465, (R)-1-(4-(3-(1-((3-chloroquinolin-4-yl)amino)ethyl)-4-fluorophenyl)-1H-pyrazol-1-yl)-2-methylpropan-2-ol], under setting [1], the IC50 fell in the range of 1 to 10 µM. On to `CC(Nc1c(Cl)cnc2ccc(-c3cnc(C(C)(C)O)nc3)cc12)C1(c2ccc(Cl)cc2)CCCC1` (racemic) [Example 142, 2-(5-(3-chloro-4-((1-(1-(4-chlorophenyl)cyclopentyl)ethyl)amino)quinolin-6-yl)pyrimidin-2-yl)propan-2-ol], for which, under setting [1], the IC50 lay in the range of 10 to 25 µM.
